Data: patent US9233957B2, “5-carbamoyl-adamantan-2-yl amide derivatives, pharmaceutically acceptable salts thereof and preparation process thereof” (SK BIOPHARMACEUTICALS CO., LTD., priority 2011, dated 2016)

Tests used:
Human 11b-HSD1 = target: T1, Human 11b-HSD1 (Homo sapiens, UniProt P28845); assay: Inhibition of cortisone-to-cortisol conversion in CHO-K1 cells over-expressing human 11b-HSD1 (HTRF cortisol assay); type: cell-based; conditions: CHO-K1 cells over-expressing human 11b-HSD1, 160 nM cortisone, 3 hours, 37° C.
T1 construct: expressed in transfected cells
T1 sequence (P28845 whole entry): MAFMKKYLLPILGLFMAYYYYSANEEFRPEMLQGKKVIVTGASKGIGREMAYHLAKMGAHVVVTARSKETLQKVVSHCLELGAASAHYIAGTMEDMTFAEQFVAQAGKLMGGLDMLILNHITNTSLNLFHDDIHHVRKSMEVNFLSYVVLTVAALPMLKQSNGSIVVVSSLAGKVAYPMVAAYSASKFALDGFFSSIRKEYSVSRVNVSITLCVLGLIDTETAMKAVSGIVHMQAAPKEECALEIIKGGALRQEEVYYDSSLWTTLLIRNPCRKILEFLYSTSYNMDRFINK
Excerpt: (§1) cDNA (human: Accession No. U12978.2; mouse: Accession No. NM_008288.2) coding the full-length amino acid sequence of 11β-HSD1 in a human and a mouse was incorporated into pMSCVpuro (from Clontech. Co. Ltd.), a vector of expressing a mammalian cell for the production of a retrovirus, and the resulting product was introduced into a GP2-293 cell (from Clontech Co. Ltd.), a retrovirus packing cell line together with pVSV-G vector (from Clontech Co. Ltd.) by using a Lipotamine plus reagent (from Invitrogen Co. Ltd.) in accordance with the method set forth in the appendix (by using HTRF cortisol assay kit from Cisbio assays Co., Ltd., catalog No. 62CO2PEB) and stabilized for 48 hours. Thereafter, viruses being obtained from those cells were used to infect CHO-K1 cell (from Korean Cell Line Bank, KCLB No. 10061) and in 24 hours, the cells were treated with 10 μg/ml pumycin (from Sigma Co. Ltd.) for two weeks to produce a stabilized cell system wherein each 11β-HSD1 in humans or in mice was over-expressed. When the cells being maintained, 5 μg/ml of puromycin was put into the medium and used (RPMI (Gibco), 37° C.). • Reference material: The EMBO Journal (2008) 27, 642-653
(§2) The obtained cells with 11b-HSD1 in a human and a mouse being over-expressed were sub-cultured in a 96-well plate with a cell number being 3×10^4 cells per well and stabilized for 24 hours [RPMI (Gibco), at 37° C., as being used in 5 days after thawing]. After a medium as diluted with DMSO including 160 nM of cortisone (from Sigma Co. Ltd.) and a test compound at a different concentration was put into each well in an amount of 200 ul, the well was cultured in a cell cultivator at 37° C. for 3 hours. 10 ul of the cultured solution was put into a 384 well plate and the amount of cortisol as generated was measured using a cortisol kit (from Cisbio international Co. Ltd, HTRF assay) in accordance with the method set forth in the appended manual.
(§3) As a control group, 160 nM of cortisone and 1% of DMSO were put into a corresponding well. The ground value was obtained from a well including only 160 nM of cortisone and 1% of DMSO without cells just like the control group. The calculation for a % inhibition level was made following the manual as appended. • Reference material: The Journal of Steroid Biochemistry and Molecular Biology, Volume 104, Issues 3-5, May 2007, Pages 123-129 • Bioorganic & Medicinal Chemistry Letters Volume 19, Issue 10, 15 May 2009, Pages 2674-2678
(§4) Like the analyzing method as stated above, the efficacy of inhibiting 11b-HSD1 was calculated as IC50 and the results are shown in Table 1: […]

Mouse 11b-HSD1 = target: T2, Mouse 11b-HSD1 (Mus musculus, UniProt P50172); assay: Inhibition of cortisone-to-cortisol conversion in CHO-K1 cells over-expressing mouse 11b-HSD1 (HTRF cortisol assay); type: cell-based; conditions: CHO-K1 cells over-expressing mouse 11b-HSD1, 160 nM cortisone, 3 hours, 37° C.
T2 construct: expressed in transfected cells
T2 sequence (P50172 whole entry): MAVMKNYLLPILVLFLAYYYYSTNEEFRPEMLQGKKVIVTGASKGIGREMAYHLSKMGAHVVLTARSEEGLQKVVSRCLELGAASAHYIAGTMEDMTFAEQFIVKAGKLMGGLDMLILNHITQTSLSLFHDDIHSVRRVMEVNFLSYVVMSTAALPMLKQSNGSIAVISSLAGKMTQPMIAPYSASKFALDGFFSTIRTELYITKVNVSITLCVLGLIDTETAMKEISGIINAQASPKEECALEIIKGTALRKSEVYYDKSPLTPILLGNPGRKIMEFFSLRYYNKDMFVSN
Excerpt: as §1, §2, §3, §4

IC50 (Human 11b-HSD1) [nM] | IC50 (Mouse 11b-HSD1) [nM] | Compound
> 500 | > 500 | Cc1cccc(-c2cc(C(=O)N[C@H]3C4CC5CC3C[C@](C(N)=O)(C5)C4)no2)c1 [Example 6, N-(5-carbamoyl-2-adamantyl)-5-(3-methylphenyl)-1,2-oxazole-3-carboxamide]
< 100 | 100 to 500 | CC(C)Oc1cccc2ccc(C(=O)N[C@H]3C4CC5CC3C[C@](C(N)=O)(C5)C4)nc12 [Example 52, N-(5-carbamoyl-2-adamantyl)-8-propan-2-yloxyquinoline-2-carboxamide]
< 100 | 100 to 500 | COc1cccc2ccc(C(=O)N[C@H]3C4CC5CC3C[C@](C(N)=O)(C5)C4)nc12 [Example 50, N-(5-carbamoyl-2-adamantyl)-8-methoxyquinoline-2-carboxamide]
< 100 | < 100 | NC(=O)[C@]12CC3CC(C1)[C@@H](NC(=O)c1cccc(N4CCCCC4)n1)C(C3)C2 [Example 58, N-(5-carbamoyl-2-adamantyl)-6-piperidin-1-yl-pyridine-2-carboxamide]
< 100 | < 100 | CCN(CC)c1cccc(C(=O)N[C@H]2C3CC4CC2C[C@](C(N)=O)(C4)C3)n1 [Example 59, N-(5-carbamoyl-2-adamantyl)-6-(diethylamino)pyridine-2-carboxamide]
< 100 | 100 to 500 | Cc1cccc(C(=O)N[C@H]2C3CC4CC2C[C@](C(N)=O)(C4)C3)n1 [Example 15, N-(5-carbamoyl-2-adamantyl)-6-methylpyridine-2-carboxamide]
< 100 | < 100 | CCOc1cccc2ccc(C(=O)N[C@H]3C4CC5CC3C[C@](C(N)=O)(C5)C4)nc12 [Example 51, N-(5-carbamoyl-2-adamantyl)-8-ethoxyquinoline-2-carboxamide]
< 100 | < 100 | NC(=O)[C@]12CC3CC(C1)[C@@H](NC(=O)c1ccc(-c4ccc(F)cc4)o1)C(C3)C2 [Example 25, N-(5-carbamoyl-2-adamantyl)-5-(4-fluorophenyl)furan-2-carboxamide]
< 100 | 100 to 500 | NC(=O)[C@]12CC3CC(C1)[C@@H](NC(=O)c1cccc(N4CCC(c5ccccc5)CC4)n1)C(C3)C2 [Example 62, N-(5-carbamoyl-2-adamantyl)-6-(4-phenylpiperidin-1-yl)pyridine-2-carboxamide]
< 100 | < 100 | Cn1c(C(=O)N[C@H]2C3CC4CC2C[C@](C(N)=O)(C4)C3)ccc1-c1ccc(F)cc1 [Example 36, N-(5-carbamoyl-2-adamantyl)-5-(4-fluorophenyl)-1-methylpyrrole-2-carboxamide]
< 100 | < 100 | Cn1c(C(=O)N[C@H]2C3CC4CC2C[C@](C(N)=O)(C4)C3)ccc1-c1cccc(Cl)c1 [Example 33, N-(5-carbamoyl-2-adamantyl)-5-(3-chlorophenyl)-1-methylpyrrole-2-carboxamide]
< 100 |  | Cc1noc(C)c1COc1cccc(C(=O)N[C@H]2C3CC4CC2C[C@](C(N)=O)(C4)C3)n1 [Example 48, N-(5-carbamoyl-2-adamantyl)-6-[(3,5-dimethyl-1,2-oxazol-4-yl)methoxy]pyridine-2-carboxamide]
< 100 | 100 to 500 | COc1ccc(-c2ccc(C(=O)N[C@H]3C4CC5CC3C[C@](C(N)=O)(C5)C4)o2)cc1 [Example 28, N-(5-carbamoyl-2-adamantyl)-5-(4-methoxyphenyl)furan-2-carboxamide]
< 100 | 100 to 500 | Cn1c(C(=O)N[C@H]2C3CC4CC2C[C@](C(N)=O)(C4)C3)ccc1-c1ccc(C(F)(F)F)cc1 [Example 37, N-(5-carbamoyl-2-adamantyl)-1-methyl-5-[4-(trifluoromethyl)phenyl]pyrrole-2-carboxamide]
< 100 | 100 to 500 | CN(C)c1cccc(C(=O)N[C@H]2C3CC4CC2C[C@](C(N)=O)(C4)C3)[n+]1[O-] [Example 65, N-(5-carbamoyl-2-adamantyl)-6-(dimethylamino)-1-oxidopyridin-1-ium-2-carboxamide]
< 100 | < 100 | CCCNc1cccc(C(=O)N[C@H]2C3CC4CC2C[C@](C(N)=O)(C4)C3)n1 [Example 60, N-(5-carbamoyl-2-adamantyl)-6-(propylamino)pyridine-2-carboxamide]

IC50 (Human 11b-HSD1) [nM] | IC50 (Mouse 11b-HSD1) [nM] | Compound
100 to 500 | > 500 | Cc1cccc(C(=O)N[C@H]2C3CC4CC2C[C@](C(N)=O)(C4)C3)[n+]1[O-] [Example 63, N-(5-carbamoyl-2-adamantyl)-6-methyl-1-oxidopyridine-1-ium-2-carboxamide]
> 500 | > 500 | NC(=O)[C@]12CC3CC(C1)[C@@H](NC(=O)c1ccccn1)C(C3)C2 [Example 16, N-(5-carbamoyl-2-adamantyl)pyridine-2-carboxamide]
< 100 | > 500 | NC(=O)[C@]12CC3CC(C1)[C@@H](NC(=O)c1ccc4cccc(OCc5ccccc5)c4n1)C(C3)C2 [Example 53]
< 100 | > 500 | NC(=O)[C@]12CC3CC(C1)[C@@H](NC(=O)c1ccc(-c4ccc([N+](=O)[O-])cc4)o1)C(C3)C2 [Example 3, N-(5-carbamoyl-2-adamantyl)-5-(4-nitrophenyl)furan-2-carboxamide]
< 100 | < 100 | NC(=O)[C@]12CC3CC(C1)[C@@H](NC(=O)c1ccc(-c4ccccc4F)s1)C(C3)C2 [Example 44, N-(5-carbamoyl-2-adamantyl)-5-(2-fluorophenyl)thiophene-2-carboxamide]
100 to 500 | > 500 | NC(=O)[C@]12CC3CC(C1)[C@@H](NC(=O)c1cc(-c4ccc(Cl)cc4)on1)C(C3)C2 [Example 13, N-(5-carbamoyl-2-adamantyl)-5-(4-chlorophenyl)-1,2-oxazole-3-carboxamide]
< 100 | 100 to 500 | NC(=O)[C@]12CC3CC(C1)[C@@H](NC(=O)c1cccc(OCc4ccccc4)n1)C(C3)C2 [Example 47, N-(5-carbamoyl-2-adamantyl)-6-phenylmethoxypyridine-2-carboxamide]
> 500 | > 500 | Cn1cccc1C(=O)N[C@H]1C2CC3CC1C[C@](C(N)=O)(C3)C2 [Example 17, N-(5-carbamoyl-2-adamantyl)-1-methylpyrrole-2-carboxamide]
< 100 | 100 to 500 | NC(=O)[C@]12CC3CC(C1)[C@@H](NC(=O)c1ccc(-c4ccc(F)c(F)c4)o1)C(C3)C2 [Example 29, N-(5-carbamoyl-2-adamantyl)-5-(3,4-difluorophenyl)furan-2-carboxamide]
< 100 | > 500 | CC(C)COc1cccc2ccc(C(=O)N[C@H]3C4CC5CC3C[C@](C(N)=O)(C5)C4)nc12 [Example 54, N-(5-carbamoyl-2-adamantyl)-8-(2-methylpropoxy)quinoline-2-carboxamide]
100 to 500 | > 500 | Cc1ccccc1-c1cc(C(=O)N[C@H]2C3CC4CC2C[C@](C(N)=O)(C4)C3)no1 [Example 8, N-(5-carbamoyl-2-adamantyl)-5-(2-methylphenyl)-1,2-oxazole-3-carboxamide]
< 100 | 100 to 500 | COc1cccc(C(=O)N[C@H]2C3CC4CC2C[C@](C(N)=O)(C4)C3)n1 [Example 45, N-(5-carbamoyl-2-adamantyl)-6-methoxypyridine-2-carboxamide]
100 to 500 | 100 to 500 | Cc1csc(C(=O)N[C@H]2C3CC4CC2C[C@](C(N)=O)(C4)C3)c1 [Example 23, N-(5-carbamoyl-2-adamantyl)-4-methylthiophene-2-carboxamide]
< 100 | < 100 | NC(=O)[C@]12CC3CC(C1)[C@@H](NC(=O)c1cccc(N4CCc5ccccc5C4)n1)C(C3)C2 [Example 61, N-(5-carbamoyl-2-adamantyl)6-(3,4-dihydro-1H-isoquinolin-2-yl)pyridine-2-carboxamide]
< 100 | 100 to 500 | CCCOc1cccc2ccc(C(=O)N[C@H]3C4CC5CC3C[C@](C(N)=O)(C5)C4)nc12 [Example 49, N-(5-carbamoyl-2-adamantyl)-8-propoxyquinoline-2-carboxamide]
